Tests used:
[1] = target: Sphingosine 1-phosphate receptor 5 (Homo sapiens, UniProt Q9H228); assay: (§1) In Vitro Binding Assay: I. Master Stock SolutionUnless specified otherwise, the sample compounds were diluted in 100% anhydrous DMSO including all dilutions. The compounds were tested as the citrate salt (1 equivalent per molecule). If the sample compound is provided in a different solvent all master stock dilutions are performed in the specified solvent. All control wells contained identical solvent final concentrations as the sample compound wells.II. Compound Plate AssayThe sample compounds were transferred from a master stock solution into a daughter plate that was used in the assay. Each sample compound was diluted into an assay buffer (1×HBSS with 20 mM HEPES, 2.5 mM Probenecid, and 0.4% Free Fatty Acid BSA) at an appropriate concentration to obtain final specified concentrations.III. Antagonist Assay FormatUsing the EC80 values that were determined real-time, stimulated all pre-incubated sample compounds and reference antagonists (if applicable) were compared with the EC80 values of reference agonist. These were read for 180 seconds using the […] (This assay added reference agonist to respective wells-then fluorescences measurements were collected to calculate IC50 values).
[2] = target: Sphingosine 1-phosphate receptor 2 (Homo sapiens, UniProt O95136); assay: as §1
Sphingosine 1-phosphate receptor 2, sequence (O95136 whole entry): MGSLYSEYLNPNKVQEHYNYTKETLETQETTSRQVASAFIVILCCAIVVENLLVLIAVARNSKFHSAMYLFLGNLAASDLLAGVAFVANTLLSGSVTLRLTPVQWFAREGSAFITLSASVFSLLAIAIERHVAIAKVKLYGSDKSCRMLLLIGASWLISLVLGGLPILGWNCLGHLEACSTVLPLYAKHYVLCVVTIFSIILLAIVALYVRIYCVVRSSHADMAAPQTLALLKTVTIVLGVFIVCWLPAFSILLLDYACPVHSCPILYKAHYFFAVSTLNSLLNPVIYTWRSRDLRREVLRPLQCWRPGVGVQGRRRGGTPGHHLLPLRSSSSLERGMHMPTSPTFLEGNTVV

Sphingosine 1-phosphate receptor 5, sequence (Q9H228 whole entry): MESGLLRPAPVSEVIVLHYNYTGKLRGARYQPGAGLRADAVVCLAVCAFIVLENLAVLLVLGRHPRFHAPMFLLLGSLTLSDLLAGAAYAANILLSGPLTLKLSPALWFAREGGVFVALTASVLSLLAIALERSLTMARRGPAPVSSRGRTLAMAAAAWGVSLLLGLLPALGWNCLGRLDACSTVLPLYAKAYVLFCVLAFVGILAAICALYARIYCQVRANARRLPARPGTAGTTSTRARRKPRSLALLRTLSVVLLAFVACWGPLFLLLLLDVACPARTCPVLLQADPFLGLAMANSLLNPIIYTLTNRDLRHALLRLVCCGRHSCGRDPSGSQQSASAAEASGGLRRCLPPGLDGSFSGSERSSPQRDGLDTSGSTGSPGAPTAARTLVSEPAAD

IC50 [1] | IC50 [2] | Compound
12 nM | 19 nM | Cc1nn(C)c2nc(N(CCCO)NC(=O)Nc3cc(Cl)nc(Cl)c3)cc(C(C)C)c12
110 nM | 52 nM | C=CCN(NC(=O)Nc1cc(Cl)nc(Cl)c1)c1cc(C(C)C)c2c(C)nn(C)c2n1

Source: ChEMBL document CHEMBL5726257, “Sphingosine 1-phosphate receptor antagonists” (2017)
